Literature values as cited in patent US9302977B2, “Method of making monomethyl fumarate” (XenoPort, Inc., priority 2013, dated 2016).
Counter-ions that a name gives are not always drawn.

Experiments:
[1] = as an impurity
[2] = test system: TNF-induced NF-κB signaling

SMILES	genotoxicity [1]	TNF-induced DNA binding of NF-κB proteins [2]	TNF-induced nuclear entry of activated NF-κB proteins [2]	TNF-induced tissue factor mRNA and protein expression [2]	aqueous solubility
COS(=O)(=O)OC [Dimethyl sulfate]	genotoxic	–	–	–	–
COC(=O)/C=C/C(=O)OC [DMF, dimethyl fumarate]	–	inhibits	inhibits	inhibits	poor
